The target of this assay is IGF1-receptor (Homo sapiens, UniProt P08069). In words: IGF1-Receptor Tyrosine Kinase Assay. The format is biochemical. The settings on record: ATP 25 μM; FL-peptide 1.5 μM; IGF1-Receptor 14 nM; 60 min room temperature; Caliper LabChip 3000; read-out: IGF-1R IC50. The procedure:
D. IGF1-Receptor Tyrosine Kinase Assay
The assays were performed in U-bottom 384-well plates. The final assay volume was 30 μl prepared from 15 μl additions of enzyme and substrates (fluoresceinated IGF1R substrate peptide and ATP) and test compounds in assay buffer (100 mM HEPES pH 7.4, 10 mM MnCl2, 0.015% Brij35 and 4 mM DTT). The reaction was initiated by the combination of IGF1-receptor with substrates and test compounds. The reaction was incubated at room temperature for 60 min. and terminated by adding 30 μl of 35 mM EDTA to each sample. The reaction mixture was analyzed on the Caliper LabChip 3000 by electrophoretic separation of the fluorescent substrate and phosphorylated product. Inhibition data were calculated by comparison to no enzyme control reactions for 100% inhibition and vehicle-only reactions for 0% inhibition. The final concentration of reagents in the assays is ATP, 25 μM; FL-peptide, 1.5 μM; IGF1-Receptor, 14 nM; and DMSO, 1.6%. Dose response curves were generated to determine the concentration required inhibiting 50% of kinase activity (IC50). Compounds were dissolved at 10 mM in dimethylsulfoxide (DMSO) and evaluated at eleven concentrations, each in duplicate. IC50 values were derived by non-linear regression analysis
Compounds described herein were tested in the above assay.

IGF1-receptor, sequence (P08069 31-1367): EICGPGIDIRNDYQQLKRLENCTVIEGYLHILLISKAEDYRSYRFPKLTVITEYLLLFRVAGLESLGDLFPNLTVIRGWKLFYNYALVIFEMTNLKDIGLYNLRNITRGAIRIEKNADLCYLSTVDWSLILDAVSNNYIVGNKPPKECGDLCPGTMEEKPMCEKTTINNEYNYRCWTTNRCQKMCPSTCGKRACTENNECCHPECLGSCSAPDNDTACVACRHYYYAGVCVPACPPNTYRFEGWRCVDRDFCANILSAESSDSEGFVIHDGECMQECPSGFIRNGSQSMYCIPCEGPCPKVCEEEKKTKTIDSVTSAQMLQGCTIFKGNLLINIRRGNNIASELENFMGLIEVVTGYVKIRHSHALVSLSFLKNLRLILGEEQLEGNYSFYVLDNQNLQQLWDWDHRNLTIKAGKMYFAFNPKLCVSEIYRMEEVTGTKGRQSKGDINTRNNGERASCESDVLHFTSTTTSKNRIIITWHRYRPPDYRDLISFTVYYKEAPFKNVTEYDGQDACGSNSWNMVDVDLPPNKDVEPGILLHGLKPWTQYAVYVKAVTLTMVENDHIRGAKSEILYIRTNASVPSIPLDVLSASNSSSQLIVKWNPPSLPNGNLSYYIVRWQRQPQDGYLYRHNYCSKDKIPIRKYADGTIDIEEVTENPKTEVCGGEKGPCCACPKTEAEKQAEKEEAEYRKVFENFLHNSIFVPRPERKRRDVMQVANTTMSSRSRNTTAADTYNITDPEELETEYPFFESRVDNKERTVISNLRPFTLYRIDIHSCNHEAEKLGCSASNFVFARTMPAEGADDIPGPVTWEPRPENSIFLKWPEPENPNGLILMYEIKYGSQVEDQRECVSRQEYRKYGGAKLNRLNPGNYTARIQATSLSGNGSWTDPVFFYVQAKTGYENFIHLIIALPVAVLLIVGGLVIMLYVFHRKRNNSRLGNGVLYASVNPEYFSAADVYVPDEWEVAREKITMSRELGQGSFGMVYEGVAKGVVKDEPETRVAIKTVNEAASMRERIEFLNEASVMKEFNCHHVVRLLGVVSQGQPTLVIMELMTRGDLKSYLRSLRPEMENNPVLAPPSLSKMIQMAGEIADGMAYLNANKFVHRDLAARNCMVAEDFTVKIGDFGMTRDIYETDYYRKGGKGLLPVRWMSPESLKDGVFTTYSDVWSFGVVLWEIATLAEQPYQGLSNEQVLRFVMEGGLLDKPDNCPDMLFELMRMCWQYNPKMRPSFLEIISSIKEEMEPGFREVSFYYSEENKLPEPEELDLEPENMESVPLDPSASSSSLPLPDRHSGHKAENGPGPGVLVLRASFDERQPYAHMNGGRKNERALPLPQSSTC

Broadly, the IC50 is the concentration that inhibits the measured activity by half. On to `O=C(NCCc1c[nH]cn1)c1cccc(Sc2cc(Nc3ncnn4cccc34)n[nH]2)c1` [Example 8, N-(2-(1H-Imidazol-4-yl)ethyl)-3-(3-(pyrrolo[1,2-f][1,2,4]triazin-4-ylamino)-1H-pyrazol-5-ylthio)benzamide], for which the concentration for half-maximal inhibition (IC50) amounted to 3190 nM.

Regarding `CCOC(=O)c1cccc(Sc2cc(Nc3ncnn4cccc34)n[nH]2)c1` [Example 1, Ethyl 3-(3-(pyrrolo[1,2-f][1,2,4]triazin-4-ylamino)-1H-pyrazol-5-ylthio)benzoate], the IC50 is greater than 25000 nM.

As for `O=C(NC1CN(S(=O)(=O)c2ccc(F)cc2)C1)c1cccc(Sc2cc(Nc3ccccn3)n[nH]2)c1` [Example 10, N-(1-(4-Fluorophenylsulfonyl)azetidin-3-yl)-3-(3-(pyridin-2-ylamino)-1H-pyrazol-5-ylthio)benzamide], the IC50 was determined as 15.1 nM.

As for `O=C(NC1CN(S(=O)(=O)c2ccccc2)C1)c1cccc(Sc2cc(Nc3ncnn4cccc34)n[nH]2)c1` [Example 3, N-(1-(Phenylsulfonyl)azetidin-3-yl)-3-(3-pyrrolo[1,2-f][1,2,4]triazin-4-ylamino-1H-pyrazol-5-ylthio)benzamide], the IC50 turned out to be 12.4 nM.

On to `NC(=O)c1cccc(Sc2cc(Nc3ncnn4cccc34)n[nH]2)c1` [Example 4, 3-(3-(Pyrrolo[1,2-f][1,2,4]triazin-4-ylamino)-1H-pyrazol-5-ylthio)benzamide], for which the IC50 is 4470 nM.

With `CC(C)(C)OC(=O)N1CC(NC(=O)c2cccc(Sc3cc(Nc4ncnn5cccc45)n[nH]3)c2)C1` [Example 5], the IC50 worked out at 295 nM.

These data come from US7851500B2, “Aminopyrazole kinase inhibitors” (Bristol-Myers Squibb Company, priority 2007, dated 2010).
